The source of these data is patent publication US7666996B2, “Casein derived peptides and uses thereof” (priority 2000, dated 2010).

In assay [1] the test system is female C57B⅙j mice fed an atherogenic diet. In words: Diet-induced hypercholesterol/hyperlipidemia in mice. It counts as in vivo. To be noted: one week post 1 mg i.p.; for HDL: diet control 54.5; for LDL: diet control 326; for Total cholesterol (TC): diet control 393. The protocol:
The ability of synthetic casein derived peptides to reduce cholesterol levels in 7-week old female C57B⅙j mice was assessed after feeding an atherogenic diet. The mice were divided into groups of 8. One control group was fed a normal diet. A second control group was fed the modified Thomas Hartroft diet containing cholate (#TD 88051: Teklad, Madison, Wis.) [Gerber, D. W. et al., Journal of Lipid Research. 42, 2001]. The remaining experimental groups were all fed the modified Thomas Hartroft diet.
Cholestrol blood levels were determined according to Roche Cholesterol Assay based on Roeschlou & Allin enzymatic method (Roche, Inc., Germany).

Assay [2] relates to HIV-1 (CEM lymphocyte cells). In words: Inhibition of HIV-1 infection of CEM lymphocytes. It counts as cell-based. As to conditions: for HIV-1 infection level, HIV-P24 antigen: 7 days post infection, control 0.52; for Cell counts: virus pre-treated 3 hours, infected control 1.06×10^6. The protocol:
Peptides: Peptides [either peptides derived from natural casein or synthetic peptides derived from casein (2-26 amino acids in length, see table 3)] supplied as lyophilized powder were resuspended in RPMI complete medium and added to cell cultures at a final concentrations of 50 to 1000 μg per ml.
Cells: Several types of freshly isolated human cells (primary cells) and cell lines are known to be susceptible to in vitro HIV-1 infection, although essentially any cell displaying even low surface levels of the CD4 molecule can be considered a potential target for HIV-1 infection. Two commonly used human cell lines which are highly sensitive for HIV-1 infection were chosen, CEM and Sup-T1.
CEM is a human T4-lymphoblastoid cell line initially derived by G. E. Foley et al. [(1965), Cancer 18:522] from peripheral blood buffy coat of a person with acute lymphoblastic leukemia. These cells were continuously maintained in suspension in medium, and have been used widely for analysis of infectivity, antiviral agents and neutralizing antibodies.
Virus: The HIV virus strain employed was HIV-1IIIB, originally designated HTLV-IIIB. Concentrated culture fluids of peripheral blood from several patients with AIDS or related diseases were used to establish a permanent productive infection in H-9 cells. This subtype B virus has high capacity to replicate in human T-cell lines. Viral titer was 5.38 ng per ml in stock solution.
HIV-1 P^24 antigen capture assay: An HIV-1 P^24 Antigen capture assay kit employed was designed to quantitate the HIV-1 P^24 core antigen, which is proportionally related to the degree of viral production in cells. This kit was purchased from the AIDS Vaccine program of the SAIC-NCI-Frederick Cancer Research Institute, P.O. Box B, Frederick, Md. 21702, USA and included 96 well plates coated with monoclonal antibody to HIV-1 P^24, primary antibody-rabbit anti-HIV P^24 serum, secondary antibody-Goat anti-rabbit-IgG (H+L) peroxidase conjugated antibody, TMB peroxidase substrate system and lysed HIV-1 P^24 standard. The HIV-1 P^24 antigen capture assay was analyzed by Organon-Technica ELISA reader at 450 nm with a reference at 650 nm.
HIV-1 P^24 antigen capture ELISA: HIV infection was measured with an indirect enzyme immunoassay which detects HIV-1 P^24 core antigens in tissue culture media. Tissue culture supernatant was reacted with primary rabbit anti-HIV-1 P^24 antigen and visualized by peroxidase conjugated goat anti rabbit IgG. The reaction was terminated by adding 4N H2SO4, wherein the intensity of the color developed is proportional to the amount of HIV-1 antigen present in the tissue culture supernatant.
HIV infection of human cultured CD4 cells: For longer incubations, the cells (CEM, Sup-T1) were preincubated with several increasing concentrations of peptides derived from natural casein (50-1000 μg per ml) or synthetic peptides derived from casein (10-500 μg per ml) for 24 (for synthetic and natural peptides) and 48 (only for natural peptides) hours and HIV-1IIIB (45 pg per ml final concentration) was added to each well thereafter. For the shorter incubations (3 hours), HIV-1IIIB was preincubated with the peptides for 3 hours and then added to cells (5000 cells/well) in tissue culture plates. Controls were IF (Infected, cells cultured with HIV-1 and without peptides), UIF (Uninfected, cells cultured without HIV-1 and without peptides) and UIF +Ch (Uninfected+peptides derived from natural casein, cells cultured in the presence of peptides derived from natural casein {50-1000 μg per ml}) to test the effect of peptides derived from natural casein and synthetic peptides derived from casein on cell viability and growth. Cells were counted for viability and proliferation rate on day 7, 10 and day 14 post infection (the day of P^24 antigen culture supernatant harvest). Cells and tissue culture supernatants (media) were harvested and lysed immediately in 1/10 volume of 10% Triton X-100. […]

Assay [3] deals with Non-Obese Diabetic (NOD) mice. The experiment in a line: Intraperitoneal Glucose Tolerance Test (IPGTT) in NOD mice. It counts as in vivo. To be noted: individual healthy NOD mice, 25 weeks after peptides; for IPGT TEST 60 min. post load plasma glucose: 60 min after i.p. glucose 1 g/kg; for IPGT TEST 0 min. (pre-load) plasma glucose: before glucose load. The protocol: Intraperitoneal Glucose Tolerance Test (IPGTT): The glucose tolerance test is the definitive method for investigating glucose metabolism and diabetic tendencies in mammals. Twenty five (25) weeks after receiving Synthetic peptides derived from casein, response to a glucose load was assessed with an intraperitoneal glucose tolerance test. Glucose injection consisted of 1 g/kg body weight. Glycemic values were determined from blood drawn prior to test (0 minutes) and 60 minutes after loading.

Assay [4] relates to Non-Obese Diabetic (NOD) mice. In words: Glucosuria in Non-Obese Diabetic (NOD) mice. It counts as in vivo. As to conditions: for Healthy/Total (sugar not detected in urine): female NOD mice, 100 μg synthetic peptide once weekly for 5 weeks, evaluated after 25 weeks; for Urine Sugar: individual healthy NOD mice, after 25 weeks; for prevention of glucosuria (in words): 100 μg once weekly for 5 weeks, 25 weeks. As to the method:
Juvenile (Type I, IDDM) diabetes in Non-Obese Diabetic (NOD) mice:
Peptides derived from natural casein: NOD mice are a commonly used model for research of autoimmune disease and human Juvenile Diabetes. Six week old female NOD mice received either one or two injections per week of 100 μg of peptides derived from natural casein, for a total of 5 or 10 treatments. Control mice received no treatment. The severity of disease was determined according to glucosuria, which was measured using Combi test sticks [Gross, D. J. et al (1994), Diabetology, 37:1195]. Results were expressed as the percent of glucosuria-free mice in each sample over a 365-day period.
Synthetic peptides derived from casein: In another experiment, 6 week old female NOD mice received one injection per week of 100 μg of Synthetic peptides derived from casein for a total of 5 treatments. Control mice received no treatment. Results were expressed as the number of healthy mice in the various treated groups.

The subject of assay [5] is irradiated, bone marrow transplanted mice. In words: Leukocyte and platelet reconstitution in bone marrow transplant recipient mice. It counts as in vivo. To be noted: for white blood cell reconstitution (in words): F1 mice, 750 cGy, 1 mg i.v., days 5 and 7 post-reconstitution. As to the method:
Leukocyte and platelet reconstitution in bone marrow transplant recipient Mice: BALB/c mice were sub-lethally irradiated at a source to skin distance of 70 cm, dosage of 50 cGy per minute, for a total of 600 cGy. The irradiated mice were […] casein, synthetic peptides derived from casein (13-26 amino acids, see Table 3 above), or human serum albumin (controls), following a double-blinded protocol. Leukocyte reconstitution was determined according to cell count in peripheral blood collected at indicated intervals from 6 to 12 days post treatment. Platelet reconstitution was determined by cell count in blood collected from the retro orbital plexus, into EDTA-containing vials, at indicated intervals from day 6 to day 15 post treatment. […]
In a third series of experiments, the mice were irradiated (800 cGy), reconstituted and injected intraperitoneally with 1.0 mg synthetic peptides derived from casein (peptides 3a and 4P, representing the first 6 and 12 amino acids of the N terminus of αS1 casein, respectively—see Table 3 above) daily, on days 4, 5, 6 and 7 post-transplantation. Platelet reconstitution was assayed at 10 and 12 days post-transplantation.
In a fourth series of experiments, F1 mice were irradiated (750 cGy), reconstituted with syngeneic bone marrow, and injected intravenously 24 hours later with 1 mg per mouse of synthetic peptides derived from casein representing amino acids 1-22 of the N terminus of αS1 casein. In addition, 2 (two) groups of mice were treated each with a natural fraction of αS1 casein position 1-23, and a fraction of peptides derived from natural κ-casein, representing amino acid coordinates 106-169 of κ-casein (SEQ ID NO: 27). WBC counts were conducted on days 5, 7, 10 and 12 post-transplantation.

Setting [6] is: 800 cGy, 1.0 mg i.p. daily, days 4-7.

In the case of “RPKHP [3P, synthetic peptide, N-terminal 5 amino acids of αS1 casein]”, in assay [1], the HDL was determined as 42.5 mg/dL, the LDL was found to be 247 mg/dL and the “Total cholesterol (TC)” value came out at 308 mg/dL. Besides, in assay [2] (10 μg per ml), the “HIV-1 infection level, HIV-P24 antigen” value amounted to 0.26 ng P^24 Ag per ml and the Cell counts is on record as 1.17×10^6. Moreover, in assay [2] (25 μg per ml), the “HIV-1 infection level, HIV-P24 antigen” value turned out to be 0.18 ng P^24 Ag per ml and the Cell counts was 1.26×10^6.
In the case of “RPKHPIKHQGLPQEVLNENLLRF [synthetic peptide, N-terminal 23 amino acids of αS1 casein]”, the “IPGT TEST 60 min. post load plasma glucose” value in assay [3] came out at 143 mg/dL. In assay [4], the “Healthy/Total (sugar not detected in urine)” value is 2/5 and the “Urine Sugar” value is listed as “Negative”.
As for “κ-casein (106-169): gel filtration fraction comprising a peptide representing amino acid positions 106-169 of κ-casein”, the “white blood cell reconstitution (in words)” value in assay [5] is listed as “dramatic enhancement”.
As for “RPKHPIKHQGLPQEVLNENLL [synthetic peptide, N-terminal 21 amino acids of αS1 casein]”, in assay [3], the “IPGT TEST 60 min. post load plasma glucose” value is given as 138 mg/dL. In addition, in assay [4], the “Healthy/Total (sugar not detected in urine)” value was 2/5 and the “Urine Sugar” value was “Negative”.
With “RPKHPIKH [Y, synthetic peptide, N-terminal 8 amino acids of αS1 casein]”, in assay [3], the “IPGT TEST 60 min. post load plasma glucose” value worked out at 138 mg/dL and the “IPGT TEST 0 min. (pre-load) plasma glucose” value came out at 121 mg/dL. In assay [4], the “Healthy/Total (sugar not detected in urine)” value was 1/5 and the “Urine Sugar” value is on record as “Negative”.
Take “RPKHPIKHQGLPQEV [C, synthetic peptide, N-terminal 15 amino acids of αS1 casein]”: the “peripheral white blood cell counts, day 10” value in assay [5] (BALB/c, 600 cGy, 1 mg per mouse intraperitoneal, control 1.67) is listed as 1.72 ×10^6 cells per ml. In addition, in assay [5] (BALB/c, 600 cGy, 1 mg per mouse intraperitoneal, control 4.64), the “peripheral white blood cell counts, day 12” value was 6.54 ×10^6 cells per ml.
As to “RPKHPIKHQGLPQE [B, synthetic peptide, N-terminal 14 amino acids of αS1 casein]”, the “IPGT TEST 0 min. (pre-load) plasma glucose” value in assay [3] stood at 130 mg/dL. In addition, in assay [4], the “Healthy/Total (sugar not detected in urine)” value is 2/5 and the “Urine Sugar” value is on record as “Negative”.
With “RPKHPIKHQG [1a, synthetic peptide, N-terminal 10 amino acids of αS1 casein]”, in assay [3], the “IPGT TEST 60 min. post load plasma glucose” value is listed as 106 mg/dL and the “IPGT TEST 0 min. (pre-load) plasma glucose” value came to 88 mg/dL. For the same substance, in assay [4], the “Healthy/Total (sugar not detected in urine)” value was 1/5 and the “Urine Sugar” value is “Negative”.
On to “α-S1 1-23: gel filtration fraction of natural casein peptides: amino acid positions 1-23 of the N-terminus of αS1 casein (SEQ ID NO: 22) (RPKHPIKHQGLPQEVLNENLLRF)”, for which the “white blood cell reconstitution (in words)” value in assay [5] was “dramatic enhancement”.
In the case of “RPKHPIKHQGLP [3a, synthetic peptide, N-terminal 12 amino acids of αS1 casein]”, in assay [4], the “prevention of glucosuria (in words)” value is on record as “highly effective”, the “Healthy/Total (sugar not detected in urine)” value is on record as 3/5 and the “Urine Sugar” value is recorded as “Negative”. In assay [5] (setting [6]), the “increase in platelet counts over control, 10 days post transplantation” value is reported as “up to 35.5%”; the “increase in platelet counts over control, 12 days post transplantation” value is “up to 13.5%”; the “platelet counts, 12 days post transplantation” value came out at 622000 mL⁻¹. Moreover, the “platelet counts, 10 days post transplantation” value in assay [5] (800 cGy, 1.0 mg i.p. daily, days 4-7, control 169) was found to be 229000 mL⁻¹.
Consider “RPKHPIKHQGL [2a, synthetic peptide, N-terminal 11 amino acids of αS1 casein]”, for which, in assay [1], the HDL came out at 41 mg/dL, the LDL was found to be 221 mg/dL and the “Total cholesterol (TC)” value amounted to 279 mg/dL. Moreover, in assay [4], the “prevention of glucosuria (in words)” value is listed as “highly effective”, the “Healthy/Total (sugar not detected in urine)” value is 4/5 and the “Urine Sugar” value is reported as “Negative”.
For the substance “RPKHPIKHQGLPQ [A, synthetic peptide, N-terminal 13 amino acids of αS1 casein]”, in assay [4], the “Healthy/Total (sugar not detected in urine)” value was 2/5 and the “Urine Sugar” value is recorded as “Negative”.
On the same counts, the results for “RPKHPIKHQGLPQEVL [D, synthetic peptide, N-terminal 16 amino acids of αS1 casein]” are 2/5 and “Negative”.
